Legend:
[1] = target: T1, Glycine receptor subunit alpha-1 (Homo sapiens, UniProt P23415); assay: Inhibition of human […] glycine receptor alpha 1 expressed in HEK293 cells; type: cell-based
T1 sequence (P23415 whole entry): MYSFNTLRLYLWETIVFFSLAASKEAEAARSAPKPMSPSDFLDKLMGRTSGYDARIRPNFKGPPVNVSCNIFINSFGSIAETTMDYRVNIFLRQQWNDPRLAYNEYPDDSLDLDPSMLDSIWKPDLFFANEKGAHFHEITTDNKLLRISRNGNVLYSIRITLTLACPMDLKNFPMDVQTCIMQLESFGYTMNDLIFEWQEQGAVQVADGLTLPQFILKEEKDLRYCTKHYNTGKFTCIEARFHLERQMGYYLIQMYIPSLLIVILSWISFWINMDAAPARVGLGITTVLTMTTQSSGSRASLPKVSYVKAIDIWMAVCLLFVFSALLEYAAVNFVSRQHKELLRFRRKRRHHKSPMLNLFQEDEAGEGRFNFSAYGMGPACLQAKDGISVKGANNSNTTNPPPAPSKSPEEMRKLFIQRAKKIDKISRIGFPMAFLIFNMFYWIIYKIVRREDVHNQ

[2] = target: T2, Glycine receptor subunit alpha-2 (Homo sapiens, UniProt P23416); assay: Inhibition of human […] glycine receptor alpha 2 expressed in HEK293 cells; type: cell-based
T2 sequence (P23416 whole entry): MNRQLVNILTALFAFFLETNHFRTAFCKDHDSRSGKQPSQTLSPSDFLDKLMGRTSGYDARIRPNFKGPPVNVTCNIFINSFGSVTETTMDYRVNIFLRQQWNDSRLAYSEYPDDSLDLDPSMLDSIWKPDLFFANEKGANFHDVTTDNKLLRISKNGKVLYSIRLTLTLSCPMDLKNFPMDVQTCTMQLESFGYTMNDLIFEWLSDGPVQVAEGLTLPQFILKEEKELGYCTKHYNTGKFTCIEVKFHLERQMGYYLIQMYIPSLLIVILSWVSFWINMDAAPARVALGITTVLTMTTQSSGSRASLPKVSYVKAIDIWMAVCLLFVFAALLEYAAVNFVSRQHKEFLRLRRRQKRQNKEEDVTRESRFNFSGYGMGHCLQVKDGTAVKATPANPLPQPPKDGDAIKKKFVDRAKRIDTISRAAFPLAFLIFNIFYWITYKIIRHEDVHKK

[3] = Cytotoxicity against HEK293 cells assessed as inhibition of cell growth incubated for 48 hrs by CCK8 assay; type: toxicity, cell-based; conditions: human
[4] = Inhibition of […] glycine receptor (unknown origin) expressed in HEK293 cells; type: cell-based, Homo sapiens

CCCCCCC(C)(C)c1cc(O)c2c(c1)OC(C)(C)[C@@H]1CC=C(CO)C[C@@H]21
IC50 [1]: 2.7 µM

C=C(C)[C@@H]1CCC(C)=C[C@H]1c1c(O)cc(CCCCC)cc1O [CANNABIDIOL]
IC50 [2]: 2.7 µM
EC50 at 48 h [3]: 12 µM

CCCCCc1cc(O)c2c(c1)OC(C)(C)[C@@H]1CCC(C)=C[C@@H]21 [DRONABINOL]
IC50 [4]: 2.7 µM
